Test results reported in patent US7858349B2, “Anti-cancer compounds” (The Regents of the University of Colorado, priority 1999, dated 2010).
pIC50: −log10 of the molar value. Read-outs that look alike come from different tables or passages of the source.

Experiments:
A549 NSCLC cells = assay: Inhibition of A-549 tumor growth in vivo in nude mice; design: species or system athymic nude mice; conditions: percent inhibition of tumor growth in nude mice; i.p. 5 mg/kg/every second day or 10 mg/kg/every fourth day
Description: (§1) Compounds having high in vitro cytotoxic activity were tested against implanted tumors in vivo. Athymic nude mice were implanted subcutaneously with suspensions (2 million SHP-77 SCLC cells, 1 million A549 NSCLC cells or 1.5 million PC3 PC cells) in Matrigel suspension. On the eighth day after tumor implantation groups of 5 mice bearing implants were injected intraperitoneally with the compounds being tested at 5 mg/kg/every second day or at 10 mg/kg/every fourth day; control animals were injected with an equal volume of isotonic saline. Less soluble compounds were initially dissolved in dimethyl sulfoxide (DMSO) and diluted with medium. In those cases the control injections contained the same concentration of DMSO. Tumor size was measured with a caliper three times per week. Tumor volume was calculated by the formula: Volume(cc)=3.14×(length)×(width)^2/6 At autopsy tumors were removed and weighed. Tumor inhibition was calculated on both weight and measurement basis. In each Table, an IC50 value of “0” represents no detectable anti-cancer activity for a drug in a given cell line and “Stim.” indicates the observation of a stimulatory activity on the growth of the cancer cell line.

SCLC strain SHP-77 = assay: MTT assay for cell survival, SCLC SHP-77 in vitro; type: cell-based, human; conditions: ED50 for killing of SCLC strain SHP-77 in vitro, 4 days, 0 = no detectable activity
PC3 PC cells = assay: Inhibition of PC3 tumor growth in vivo in nude mice; design: species or system athymic nude mice; key to PC3 In vivo % inhib.: an IC50 value of “0” represents no detectable anti-cancer activity for a drug in a given cell line; “Stim.” indicates the observation of a stimulatory activity on the growth of the cancer cell line; conditions: for PC3 In vivo % inhib.: percent inhibition of tumor growth in nude mice, prostate cancer, i.p. 5 mg/kg/every second day or 10 mg/kg/every fourth day
Method in brief: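 Athymic nude mice carrying subcutaneous Matrigel implants (2 million SHP-77, 1 million A549 or 1.5 million PC3 cells) received intraperitoneal compound from day 8, 5 mg/kg every second day or 10 mg/kg every fourth day, 5 mice/group, vehicle controls. Inhibition from caliper volume (3.14×L×W²/6, thrice weekly) and tumor weight at autopsy.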

NSCLC strain A-549 = assay: MTT assay for cell survival, NSCLC A-549 in vitro; type: cell-based, human; conditions: ED50 for killing of NSCLC strain A-549 in vitro, 4 days
[1] = test system: cultured human cancer cell lines; assay: MTT assay for cell survival, cell line not stated; type: cell-based; conditions: 4 days, read-out: concentration causing 50% cell death
SHP-77 SCLC cells = assay: Inhibition of SHP-77 tumor growth in vivo in nude mice; design: species or system athymic nude mice; conditions: 5 mg/kg/every second day or 10 mg/kg/every fourth day
Description: as §1

implanted tumors = assay: In vivo anti-cancer activity after oral administration; design: species or system nude mice

Row | Compound | A-549 In vivo % inhib. (A549 NSCLC cells) [%] | pIC50 (SCLC strain SHP-77; read-out: SHP-77 In vitro IC50) | PC3 In vivo % inhib. (PC3 PC cells) | pIC50 (SCLC strain SHP-77; read-out: SCLC SHP-77 IC50) | further results
1 | CC1(C)CC(NC(=O)C(Cc2ccc(OCc3c(Cl)cccc3Cl)cc2)NC(=O)C(c2ccccc2)C2CCCCC2)CC(C)(C)N1 (single isomer, unassigned) [M-1124#1, Chpa-OC2Y-Atmp] | 50 | 5.77 | Stim |  | 
2 | CCCCCCC(O)CC=CCCCCCCCC(=O)NC(Cc1ccc(OCc2c(Cl)cccc2Cl)cc1)C(=O)NC1CC(C)(C)NC(C)(C)C1 (stereo not shown) [Analog M-1128, Rio-OC2Y-Atmp] | 48 | 5.80 | 44% |  | 
3 | CC1(C)CC(NC(=O)C(Cc2ccc(-c3ccccc3)cc2)NC(=O)C=Cc2c(F)c(F)c(F)c(F)c2F)CC(C)(C)N1 (stereo not shown) [Analog M-1174, F5c-Bip-Atmp] | 57 | 5.43 | 37% |  | 
4 | O=C(C=Cc1c(F)c(F)c(F)c(F)c1F)NC(Cc1ccc(I)cc1)C(=O)NC1CCN(Cc2ccccc2)CC1 (stereo not shown) [Analog M-1180, F5c-PIF-Abzp] | 23 | 5.49 | 53% |  | 
5 | O=C(NC(Cc1ccc2ccccc2c1)C(=O)N(Cc1ccccn1)Cc1ccccn1)C(c1ccc(Cl)cc1)c1ccc(Cl)cc1 (stereo not shown) [Analog M-1214, Bcpa-Nal-Dpic] | 24 | 5.14 | 37% |  | 
6 | O=C(C=Cc1c(F)c(F)c(F)c(F)c1F)NC(Cc1ccc2ccccc2c1)C(=O)N1CCN(c2ccccn2)CC1 (stereo not shown) [Analog M-1216, F5c-Nal-Pypz] | 32 | < 4.22 | 22% |  | 
7 | O=C(NC(Cc1ccc2ccccc2c1)C(=O)N1CCN(c2ccccn2)CC1)C(c1ccc(Cl)cc1)c1ccc(Cl)cc1 (stereo not shown) [Analog M-1242, Bcpa-Nal-Pypz] | 19 | < 4.22 | 36% |  | 
8 | COc1ccc(C=CC(=O)NC(Cc2ccc(OCc3c(Cl)cccc3Cl)cc2)C(=O)NC2CC(C)(C)NC(C)(C)C2)cc1OC (stereo not shown) [Analog M-1362, 3,4Dmc-OC2Y-Atmp] | 21 |  |  | 5.40 | 
9 | CC1(C)CC(NC(=O)C(Cc2ccc(OCc3c(Cl)cccc3Cl)cc2)NC(=O)CCCc2c[nH]c3ccccc23)CC(C)(C)N1 (stereo not shown) [Analog M-1364, 3Ibu-OC2Y-Atmp] | 50 |  | 9% | 5.14 | 
10 | CC(C)=CCCC(C)CC(=O)NC(Cc1ccc(OCc2c(Cl)cccc2Cl)cc1)C(=O)NC1CC(C)(C)NC(C)(C)C1 (stereo not shown) [Analog M-1366, Dmo-OC2Y-Atmp] | 14 |  |  | 5.42 | 
11 | CC1(C)CC(NC(=O)C(Cc2ccc(OCc3c(Cl)cccc3Cl)cc2)NC(=O)c2cnccn2)CC(C)(C)N1 (stereo not shown) [Analog M-1368, 2Pyz-OC2Y-Atmp] | 47 |  | Stim. | 5.49 | 
12 | CC1(C)CC(NC(=O)C(Cc2ccc(OCc3c(Cl)cccc3Cl)cc2)NC(=O)c2ccc(B(O)O)cc2)CC(C)(C)N1 (stereo not shown) [Analog M-1372, Bbz-OC2Y-Atmp] | 64 |  |  | < 4.22 | 
13 | COc1ccc2c(c1)c(CC(=O)NC(Cc1ccc(OCc3c(Cl)cccc3Cl)cc1)C(=O)NC1CC(C)(C)NC(C)(C)C1)c(C)n2C(=O)c1ccc(Cl)cc1 (stereo not shown) [Analog M-1376, Indo-OC2Y-Atmp] | 18 |  | 44% | 5.82 | pIC50 (NSCLC strain A-549): 5.74
14 | CC(=O)Oc1ccccc1C(=O)NC(Cc1ccc(OCc2c(Cl)cccc2Cl)cc1)C(=O)NC1CC(C)(C)NC(C)(C)C1 (stereo not shown) [Analog M-1378, Aspr-OC2Y-Atmp] | 9 |  | Stim. | 5.54 | pIC50 (NSCLC strain A-549): 5.46
15 | CC1(C)CC(NC(=O)C(Cc2ccc(OCc3c(Cl)cccc3Cl)cc2)NC(=O)Cc2ccccc2Nc2c(Cl)cccc2Cl)CC(C)(C)N1 (stereo not shown) [Analog M-1382, Dfc-OC2Y-Atmp] | 46 |  |  | 5.54 | 
16 | CC1(C)CC(NC(=O)C(Cc2ccc(OCc3c(Cl)cccc3Cl)cc2)NC(=O)CCCc2ccc(N(CCCl)CCCl)cc2)CC(C)(C)N1 (stereo not shown) [Analog M-1384, Chl-OC2Y-Atmp] | 46 |  | Stim. | 5.74 | pIC50 (NSCLC strain A-549): 5.72
17 | CC1(C)CC(NC(=O)C(Cc2ccc(OCc3c(Cl)cccc3Cl)cc2)NC(=O)C=Cc2cc(F)cc(F)c2F)CC(C)(C)N1 (stereo not shown) [Analog M-1388, F3c-OC2Y-Atmp] | 21 |  | Stim. | 5.80 | 
18 | CC(C(=O)NC(Cc1ccc(OCc2c(Cl)cccc2Cl)cc1)C(=O)NC1CC(C)(C)NC(C)(C)C1)c1cccc(C(=O)c2ccccc2)c1 (stereo not shown) [Analog M-1392, Ktpf-OC2Y-Atmp] | 28 |  | 18% | 5.54 | 
19 | CC1(C)CC(NC(=O)C(Cc2ccc(OCc3c(Cl)cccc3Cl)cc2)NC(=O)C2CCn3c(C(=O)c4ccccc4)ccc32)CC(C)(C)N1 (stereo not shown) [Analog M-1394, Ktlc-OC2Y-Atmp] | 68 |  | Stim. | 5.54 | pIC50 (NSCLC strain A-549): 5.31
20 | Pentafluorocinnamoyl-O-(2,6-dichlorobenzyl)tyrosine-4-amino-2,2,6,6-tetramethylpiperidine [Analog M570, reference compound] |  |  |  |  | pIC50 [1]: 6.82; inhibition of growth of the SCLC line SHP-77 (SHP-77 SCLC cells): 85%; in vivo anti-cancer activity after oral administration (implanted tumors): active; inhibition of PC cell line PC3 tumors (PC3 PC cells; nude mice, 5 mg/kg/every second day or 10 mg/kg/every fourth day): 65%
